Experimental findings from US10131634B2, “Method of treating pain” (Poseida Therapeutics, Inc., priority 2011, dated 2018) are described below.

For data set [1], the system named is wild type rats. Description: Side effects in wild type rats dosed with compound. It counts as in vivo, rat. As for the experimental part:
The quinoline structure Formula 1a is tested in cells and rats.

Data set [2] deals with wild type rats. Description: Pain related behaviours after colon mustard (MO) infusion in wild type rats. The class given is in vivo, rat.

On to `Cc1cc(N2CCCCC2)nc2ccccc12` [Formula 1a], for which, in the data set on wild type rats [1], the cardiotoxicity result is on record as “no cardiotoxicity” and the side effects entry is “no obvious side effects”. Further, the inhibition of pain result with wild type rats [2] (colon mustard infusion, FIG. 1 (lower body licking)) was “dose responsive inhibition of pain”.

`CN1CC[C@]23c4c5ccc(O)c4O[C@H]2[C@@H](O)C=C[C@H]3[C@H]1C5` [morphine, reference compound]: in the data set on wild type rats [2] (pre-treatment, s.c., FIGS. 7-9), the “doses to inhibit pain related behaviors induced by intracolonic MO infusion (morphine equivalency)” value is listed as “requires much higher doses”.
